Assays:
[1] = tested on: sorbitol accumulation in the sciatic nerve of streptozotocinized rats; test: inhibition of sorbitol accumulation in the sciatic nerve of streptozotocinized (diabetic) rats; type: in vivo; conditions: measured 27 hours after induction of diabetes, vs untreated
Procedure: The activity of the compounds of the present invention, as agents for the control of chronic diabetic complications, is determined by their ability to successfully pass one or more of the following standard biological and/or pharmacological tests, viz., (1) measuring their ability to inhibit the enzyme activity of isolated aldose reductase; (2) measuring their ability to reduce or inhibit sorbitol accumulation in the sciatic nerve of acutely streptozotocinized (i.e., diabetic) rats; (3) measuring their ability to reverse already-elevated sorbitol levels in the sciatic nerve and lens of chronic streptozotocin-induced diabetic rats; (4) measuring their ability to prevent or inhibit galactitol formation in the lens of acutely galactosemic rats, and (5) measuring their ability to delay cataract formation and reduce the severity of lens opacities in chronic galactosemic rats. The following tetrahydroquinoline-derived spiro-hydantoin compounds of Examples 1 and 3-4, respectively, were tested for their ability to reduce or inhibit sorbitol accumulation in the sciatic nerve of streptozotocinized (i.e., diabetic) rats by the procedure essentially described in U.S. Pat. No. 3,821,383. In the present study, the amount of sorbitol accumulation in the sciatic nerves was measured 27 hours after induction of diabetes. The compounds were administered orally at the dose levels indicated at 4, 8 and 24 hours following the administration of streptozotocin. The results obtained in this manner are presented below in terms of percent inhibition (%) afforded by the test compound as compared to the case where no compound was administered (i.e., the untreated animal where sorbitol levels normally rise from approximately […]. tissue to as high as 400 mM/g. tissue in the 27-hour test period): […]

[2] = tested on: sorbitol levels in diabetic rats; test: control (inhibition) of the formation of sorbitol levels in diabetic rats, oral; type: in vivo; conditions: 5.0 mg./kg. to 25 mg./kg.
From the text: As previously indicated, the tetrahydroquinoline-derived spiro-hydantoin compounds of this invention are all readily adapted to therapeutic use as aldose reductase inhibitors for the control of chronic diabetic complications, in view of their ability to reduce lens sorbitol levels in diabetic subjects to a statistically significant degree. […] The other compounds of this invention also cause similar results. Furthermore, all the herein described compounds of this invention can be administered by either the oral or parenteral routes of administration, for the present purposes at hand, without causing any significant untoward pharmacological side reactions to occur in the subject to whom they are so administered. In general, these compounds are ordinarily administered in dosages ranging from about 0.25 mg. to about 25 mg. per kg. of body weight per day, although variations will necessarily occur depending upon the weight and condition of the subject being treated and the particular route of administration chosen.

[3] = 5.0 mg./kg. orally at 4, 8 and 24 hours after streptozotocin

Structure (SMILES) | Percent Inhibition (%) of sorbitol accumulation in sciatic nerve ([1]; 10 mg./kg. orally at 4, 8 and 24 hours after streptozotocin) [%] | control (i.e., inhibit) the formation of sorbitol levels in diabetic rats [2] | Percent Inhibition (%) of sorbitol accumulation in sciatic nerve [1, 3] [%]
O=C1NC(=O)C2(CCNc3ccc(Cl)cc32)N1 (stereo not shown) [Product of Example 4, 6'-chloro-1',2',3',4'-tetrahydro-spiro-[imidazolidine-4,4'-quinoline]-2,5-dione] | 80 | consistently control (i.e., inhibit) the formation of sorbitol levels in diabetic rats to a significantly high degree | –
CN1CCC2(NC(=O)NC2=O)c2ccccc21.Cl (stereo not shown) [Product of Example 1, 1'-methyl-1',2',3',4'-tetrahydro-spiro-[imidazolidine-4,4'-quinoline]-2,5-dione hydrochloride] | – | – | 19
O=C1NC(=O)C2(CCNc3cc(Cl)ccc32)N1 (stereo not shown) [Product of Example 3, 7'-chloro-1',2',3',4'-tetrahydro-spiro-[imidazolidine-4,4'-quinoline]-2,5-dione] | – | – | 23

From patent US4273775A, “Hydantoin derivatives, anti-diabetic compositions thereof, and method of use thereof” (Pfizer Inc., priority 1980, dated 1981)
